# Reference: ChEMBL document CHEMBL1201862, “PubChem BioAssay data set” (2004)
#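 Growth conditions: 96-well plates. Treatment: test compound, 48 hours, 5 concentrations. Analysis: linear interpolation between bracketing concentrations; unreached endpoints set to highest concentration. GI50 = concentration required for 50% inhibition of growth.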 Calls of active or inactive are those of the source. Rule as the data show it: active = GI50 up to about 1.1 µM and inactive = higher.
# How the values were obtained:
# Test in all cases: NCI anticancer screen, dose series, 48 h
# 786-0 = tested on: 786-0
# A498 = tested on: A498
# ACHN = tested on: ACHN
# HCC 2998 = tested on: HCC 2998
# HCT-116 = tested on: HCT-116
# IGROV-1 = tested on: IGROV-1
# Malme-3M = tested on: Malme-3M
# NCI-H226 = tested on: NCI-H226
# RXF 393 = tested on: RXF 393
# SF-268 = tested on: SF-268
# SK-MEL-2 = tested on: SK-MEL-2
# SK-MEL-5 = tested on: SK-MEL-5
# SN12C = tested on: SN12C
# TK-10 = tested on: TK-10
# UO-31 = tested on: UO-31
# Hs-578T = tested on: Hs-578T
# SF-539 = tested on: SF-539
# U-251 = tested on: U-251
# UACC-62 = tested on: UACC-62
Compound,GI50 (786-0),GI50 (A498),GI50 (ACHN),GI50 (HCC 2998),GI50 (HCT-116),GI50 (IGROV-1),GI50 (Malme-3M),GI50 (NCI-H226),GI50 (RXF 393),GI50 (SF-268),GI50 (SK-MEL-2),GI50 (SK-MEL-5),GI50 (SN12C),GI50 (TK-10),GI50 (UO-31),GI50 (Hs-578T),GI50 (SF-539),GI50 (U-251),GI50 (UACC-62)
O=C1CCc2nc3ncccc3cc2C1,> 100 µM (inactive),> 100 µM (inactive),> 100 µM (inactive),> 100 µM (inactive),65.5 µM (inactive),58.2 µM (inactive),> 100 µM (inactive),> 100 µM (inactive),> 100 µM (inactive),51.8 µM (inactive),> 100 µM (inactive),> 100 µM (inactive),> 100 µM (inactive),> 100 µM (inactive),79.8 µM (inactive),,,,
Clc1ccccc1CN1COc2c(cc(Cl)c3cccnc23)C1,4.39 µM (inactive),,1.84 µM (inactive),,3.64 µM (inactive),5.55 µM (inactive),2.47 µM (inactive),1.3 µM (inactive),13.7 µM (inactive),5.18 µM (inactive),6.19 µM (inactive),1.38 µM (inactive),0.0249 µM (active),3.44 µM (inactive),2.89 µM (inactive),4.62 µM (inactive),2.69 µM (inactive),3.33 µM (inactive),1.52 µM (inactive)
CCCCCCc1cc2cc(-c3cn4c(n3)sc3ccccc34)c(=O)oc2cc1O,> 31.6 µM (inactive),,> 100 µM (inactive),> 100 µM (inactive),> 95.1 µM (inactive),> 100 µM (inactive),2.36 µM (inactive),> 100 µM (inactive),> 48.3 µM (inactive),> 100 µM (inactive),> 100 µM (inactive),> 100 µM (inactive),> 100 µM (inactive),> 100 µM (inactive),> 100 µM (inactive),> 25.1 µM (inactive),> 100 µM (inactive),> 100 µM (inactive),2.36 µM (inactive)
C[C@@H]1C(=O)O[C@@H]2C[C@@]1(C)[C@@H]1C(=O)C3(O)OC14C2(C)OC(=O)[C@@]4(O)CCC1C3C(O)C=C2CC=CC(=O)[C@@]21C (some centres undefined),33.1 µM (inactive),,53.6 µM (inactive),39.1 µM (inactive),20.7 µM (inactive),42.3 µM (inactive),,,13.8 µM (inactive),26.7 µM (inactive),17.9 µM (inactive),33 µM (inactive),41.2 µM (inactive),36.9 µM (inactive),22.5 µM (inactive),20.9 µM (inactive),25.3 µM (inactive),30.8 µM (inactive),22 µM (inactive)
CC(C)(C)OC(=O)N1CCC2(C)CC(=O)CC=C12 (centres undefined),> 100 µM (inactive),,> 100 µM (inactive),> 100 µM (inactive),81.8 µM (inactive),> 100 µM (inactive),> 100 µM (inactive),> 100 µM (inactive),> 100 µM (inactive),> 100 µM (inactive),> 100 µM (inactive),> 100 µM (inactive),> 100 µM (inactive),> 100 µM (inactive),> 100 µM (inactive),> 100 µM (inactive),> 100 µM (inactive),> 100 µM (inactive),> 100 µM (inactive)
c1ccc(CN2CCC(=NN3CCCCC3)CC2)cc1,> 100 µM (inactive),,> 100 µM (inactive),51.1 µM (inactive),64.1 µM (inactive),> 100 µM (inactive),> 100 µM (inactive),> 100 µM (inactive),35.1 µM (inactive),88.1 µM (inactive),> 100 µM (inactive),30.3 µM (inactive),> 100 µM (inactive),86.7 µM (inactive),64.7 µM (inactive),35 µM (inactive),> 100 µM (inactive),59.6 µM (inactive),> 100 µM (inactive)
O=C1CCCCC/C1=C\c1cccc([N+](=O)[O-])c1,33.2 µM (inactive),> 100 µM (inactive),33.3 µM (inactive),21.2 µM (inactive),22.2 µM (inactive),19.4 µM (inactive),28.5 µM (inactive),,28.7 µM (inactive),18.5 µM (inactive),29.6 µM (inactive),18.4 µM (inactive),45.7 µM (inactive),33.7 µM (inactive),27.7 µM (inactive),,21.5 µM (inactive),27.4 µM (inactive),22.5 µM (inactive)
CCOC(=O)CC1C(O)C(=O)N(C)C1c1ccccc1 (centres undefined),> 100 µM (inactive),,> 100 µM (inactive),> 100 µM (inactive),> 100 µM (inactive),> 100 µM (inactive),> 100 µM (inactive),> 100 µM (inactive),> 100 µM (inactive),> 100 µM (inactive),> 100 µM (inactive),> 100 µM (inactive),> 100 µM (inactive),> 100 µM (inactive),> 100 µM (inactive),> 100 µM (inactive),> 100 µM (inactive),> 100 µM (inactive),> 100 µM (inactive)
CCCC(=O)CC(C)C(=O)C(=O)NC12CC3CC(CC(C3)C1)C2 (centres undefined),> 100 µM (inactive),,> 100 µM (inactive),> 100 µM (inactive),,,> 100 µM (inactive),> 100 µM (inactive),> 100 µM (inactive),> 100 µM (inactive),> 100 µM (inactive),> 100 µM (inactive),> 100 µM (inactive),> 100 µM (inactive),> 100 µM (inactive),,,> 100 µM (inactive),
O=S(=O)(c1ccc(Cl)cc1)c1ccccc1C1=NCCN1,> 100 µM (inactive),,> 100 µM (inactive),> 100 µM (inactive),> 100 µM (inactive),> 100 µM (inactive),> 100 µM (inactive),> 100 µM (inactive),> 100 µM (inactive),> 100 µM (inactive),> 100 µM (inactive),> 100 µM (inactive),> 100 µM (inactive),> 100 µM (inactive),> 100 µM (inactive),> 100 µM (inactive),,> 100 µM (inactive),> 100 µM (inactive)
CC(=O)Oc1ccc2c(c1)O/C(=C\c1ccc(N(C)C)cc1)C2=O,> 100 µM (inactive),,> 100 µM (inactive),> 100 µM (inactive),85.5 µM (inactive),> 100 µM (inactive),,> 100 µM (inactive),73.5 µM (inactive),> 100 µM (inactive),,> 100 µM (inactive),62.7 µM (inactive),> 100 µM (inactive),26.3 µM (inactive),21 µM (inactive),26.4 µM (inactive),37.7 µM (inactive),> 100 µM (inactive)
O=S1(=O)c2ccccc2NC(c2ccc3ccccc3c2)CC1c1ccccc1F (centres undefined),> 100 µM (inactive),> 100 µM (inactive),> 100 µM (inactive),> 100 µM (inactive),,> 100 µM (inactive),> 100 µM (inactive),> 100 µM (inactive),> 100 µM (inactive),> 100 µM (inactive),> 100 µM (inactive),> 100 µM (inactive),> 100 µM (inactive),> 100 µM (inactive),> 100 µM (inactive),,> 100 µM (inactive),,> 100 µM (inactive)
